Structures can show the parent of a compound that is named as a salt.
Key:
rats = assay: Analgesia test on rats (carrageenan subplantar injection, thermal stimulus, Hargreaves method); type: in vivo; conditions: analgesic activity, rat, 2.5 mg/kg i.v., compound given 3 h after carrageenan; for % activity At 30 min.: 30 min after administration; for % activity At 120 min.: 120 min after administration
Protocol: Biological Activity Analgesia Test on Rats
The analgesic activity of the compounds of the invention is tested as described in the publication by K. Hargreaves et al., Pain, 32. 77-88. (1988).
Briefly, the rats are transferred to the experimentation laboratory, where they remain in groups of five in Makrolon cages with barred floors to prevent coprophagy. At the start of the experiment, water and food were removed and animals weighed and labelled appropriately.
Each rat receives by subplantar injection 0.1 ml of sterile saline solution in the rear left leg, followed by 0.1 ml 2% (weight/volume) carrageenan suspension in sterile saline solution in the rear right leg.
Three hours following the subplantar injections of carrageenan and vehicle, each rat was intravenously administered with compounds to be tested, dissolved in sterile saline serum, at a dose of 1 ml per kg of body weight. Then after administration of compounds, analgesic activity values were readed. For this purpose, rats were transferred to the methacrylate chambers of an analgesimeter with a glass floor. Once the period of acclimatisation in the chambers had elapsed (i.e., after 5 minutes), an infrared radiation lamp capable of producing thermal stimulation was placed under the rats' legs. Readings of analgesic activity were taken at 15, 30, 60 and 120 minutes following administration of the products or their vehicle.
The thermal stimulus, calibrated beforehand to 10 amperes, is applied to each of the rear legs at intervals of at least 1 minute. The response of the rats to the pain consists in raising the leg, thus avoiding contact with the floor.

Row | melting point [°C] | Compound | % activity At 30 min. (rats) [%] | % activity At 120 min. (rats) [%]
1 | > 280 | O=C(NS(=O)(=O)c1ccc(N2N=C(C(F)(F)F)CC2c2ccccc2)cc1)c1ccc(C(F)(F)F)cc1 (stereo not shown) (as salt: sodium) [Compound 22, N-(4-Trifluoromethylbenzoyl)-4-(4,5-dihydro-5-phenyl-3-trifluoromethyl-pyrazole-1-yl)-benzenesulphonamide] | – | –
2 | – | COC(=O)NS(=O)(=O)c1ccc(C2CC(C(F)(F)F)=NN2c2ccccc2)cc1 (stereo not shown) [Compound 31, N-Methoxycarbonyl-4-(4,5-dihydro-1-phenyl-3-trifluoromethyl-1H-pyrazole-5-yl)benzenesulphonamide] | 76 | 49
3 | – | CCCCOC(=O)NS(=O)(=O)c1ccc(C2CC(C(F)(F)F)=NN2c2ccccc2)cc1 (stereo not shown) [Compound 37, N-Butoxycarbonyl-4-(4,5-dihydro-1-phenyl-3-trifluoromethyl-1H-pyrazole-5-yl)benzenesulphonamide] | 68 | 75
4 | > 280 | CCC(=O)NS(=O)(=O)c1ccc(C2CC(C(F)(F)F)=NN2c2ccccc2)cc1 (stereo not shown) (as salt: sodium) [Compound 32, N-Propionyl-4-(4,5-dihydro-1-phenyl-3-trifluoromethyl-1H-pyrazole-5-yl)benzenesulphonamide] | – | –
5 | – | N-Ethyloxicarbonyl-4-(4,5-dihydro-5-phenyl-3-trifluoromethyl-pyrazole-1-yl)-benzenesulphonamide [Compound 4] | 78 | 48
6 | – | N-(4-Trifluoromethyl)benzoil-4-(4,5-dihydro-1-phenyl-3-trifluoromethyl-1H-pyrazole-5-yl)benzenesulphonamide [Compound 39] | 92 | 57
7 | – | O=C(NS(=O)(=O)c1ccc(N2N=C(C(F)(F)F)CC2c2ccccc2)cc1)c1ccc(C(F)(F)F)cc1 (stereo not shown) [Compound 22, N-(4-Trifluoromethylbenzoyl)-4-(4,5-dihydro-5-phenyl-3-trifluoromethyl-pyrazole-1-yl)-benzenesulphonamide] | 72 | 76
8 | – | CCC(=O)NS(=O)(=O)c1ccc(C2CC(C(F)(F)F)=NN2c2ccccc2)cc1 (stereo not shown) [Compound 32, N-Propionyl-4-(4,5-dihydro-1-phenyl-3-trifluoromethyl-1H-pyrazole-5-yl)benzenesulphonamide] | 72 | 51
9 | – | O=C(CO)NS(=O)(=O)c1ccc(N2N=C(C(F)(F)F)CC2c2ccccc2)cc1 (stereo not shown) [Compound 3, N-(2-Hydroxyacetyl)-4-(4,5-dihydro-5-phenyl-3-trifluoromethyl-pyrazole-1-yl)-benzenesulphonamide] | 41 | 40
10 | – | COC(=O)c1ccc(NS(=O)(=O)c2ccc(N3N=C(C(F)(F)F)CC3c3ccccc3)cc2)cc1 (stereo not shown) [Compound 25, 4-[4-(4,5-dihydro-5-phenyl-3-trifluoromethyl-pyrazole-1-yl)-benzenesulphonylamine] benzoic acid methylic ester] | 67 | 66

Row | Compound | melting point [°C] | % activity At 30 min. (rats) [%] | % activity At 120 min. (rats) [%]
11 | CCCCOC(=O)NS(=O)(=O)c1ccc(C2CC(C(F)(F)F)=NN2c2ccccc2)cc1 (stereo not shown) (as salt: sodium) [Compound 37, N-Butoxycarbonyl-4-(4,5-dihydro-1-phenyl-3-trifluoromethyl-1H-pyrazole-5-yl)benzenesulphonamide] | 223 to 230 | – | –
